Results as given in the supplement of paper PMC11281043.
± gives the standard deviation of the averaged measurements.

Columns and labels:
Danio rerio embryo/larva [1] = assay: BMC general abnormality; higher = less potent; details: exposure: 6-8 hpf to 5 dpf, scored at 6 dpf
Method: (§1)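 Zebrafish embryos (with chorion) were exposed from 6-8 hpf to each PFAS (8-point half-log series, top concentration up to 100 uM, 0.4% DMSO, sealed plates, 26 C; n = 6 embryos per concentration), rinsed at 5 dpf and scored at 6 dpf by two blinded observers for mortality, hatching and malformations. Endpoint scores are the % of living larvae affected (dead larvae excluded; […]). Curves were fitted with tcpl (cutoff 16%), and the BMC is the concentration at a benchmark response of 21.6%.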

Danio rerio embryo/larva [2] = assay: max % larvae with spinal defects across tested concentrations; higher = more toxic; extreme values may be limits of the assay; details: exposure: 6-8 hpf to 5 dpf, scored at 6 dpf
Danio rerio embryo/larva [3] = assay: max % larvae with pigmentation defects across tested concentrations; higher = more toxic; details: exposure: 6-8 hpf to 5 dpf, scored at 6 dpf
Danio rerio embryo/larva [4] = assay: max % larvae with abnormal position across tested concentrations; higher = more toxic; extreme values may be limits of the assay; details: exposure: 6-8 hpf to 5 dpf, scored at 6 dpf
Danio rerio embryo/larva [5] = assay: max % larvae generally abnormal across tested concentrations; higher = more toxic; extreme values may be limits of the assay; details: exposure: 6-8 hpf to 5 dpf, scored at 6 dpf
Danio rerio embryo/larva [6] = assay: max % larvae with uninflated swim bladder across tested concentrations; higher = more toxic; extreme values may be limits of the assay; details: exposure: 6-8 hpf to 5 dpf, scored at 6 dpf
Danio rerio embryo/larva [7] = assay: max % larvae with edema across tested concentrations; higher = more toxic; extreme values may be limits of the assay; details: exposure: 6-8 hpf to 5 dpf, scored at 6 dpf
Danio rerio embryo/larva [8] = assay: max % larvae with craniofacial defects across tested concentrations; higher = more toxic; extreme values may be limits of the assay; details: exposure: 6-8 hpf to 5 dpf, scored at 6 dpf
Danio rerio embryo/larva [9] = assay: max % larvae with blood pooling across tested concentrations; higher = more toxic; extreme values may be limits of the assay; details: exposure: 6-8 hpf to 5 dpf, scored at 6 dpf
Danio rerio embryo/larva [10] = assay: max % larvae with tail defects across tested concentrations; higher = more toxic; extreme values may be limits of the assay; details: exposure: 6-8 hpf to 5 dpf, scored at 6 dpf
Danio rerio embryo/larva [11] = assay: BMC any abnormality; max tested concentration (log10 uM): 2; higher = less potent; details: exposure: 6-8 hpf to 5 dpf, scored at 6 dpf
Method: as §1

Danio rerio embryo/larva [12] = assay: max % larvae dead across tested concentrations; max tested concentration (log10 uM): 2; higher = more toxic; extreme values may be limits of the assay; details: exposure: 6-8 hpf to 5 dpf, scored at 6 dpf
Danio rerio embryo/larva [13] = assay: max % larvae with any abnormality across tested concentrations; max tested concentration (log10 uM): 2; higher = more toxic; extreme values may be limits of the assay; details: exposure: 6-8 hpf to 5 dpf, scored at 6 dpf
Danio rerio embryo/larva [14] = assay: BMC mortality; max tested concentration (log10 uM): 2; higher = less potent; details: exposure: 6-8 hpf to 5 dpf, scored at 6 dpf
Method: as §1

Danio rerio embryo/larva [15] = assay: max % larvae unhatched across tested concentrations; max tested concentration (log10 uM): 2; higher = more toxic; details: exposure: 6-8 hpf to 5 dpf, scored at 6 dpf
Danio rerio embryo/larva [16] = assay: BMC edema; higher = less potent; details: exposure: 6-8 hpf to 5 dpf, scored at 6 dpf
Method: as §1

Danio rerio embryo/larva [17] = assay: BMC swim bladder non-inflation; higher = less potent; details: exposure: 6-8 hpf to 5 dpf, scored at 6 dpf
Method: as §1

Danio rerio embryo/larva [18] = assay: BMC craniofacial defects; higher = less potent; details: max tested concentration (log10 uM): 2; exposure: 6-8 hpf to 5 dpf, scored at 6 dpf
Method: as §1

[19] = max tested concentration (log10 uM): 1
[20] = max tested concentration (log10 uM): 2

| Compound | BMC general abnormality (Danio rerio embryo/larva [1]) | max % larvae (Danio rerio embryo/larva [2]) | max % larvae (Danio rerio embryo/larva [3]) | max % larvae (Danio rerio embryo/larva [4]) | max % larvae generally abnormal across tested concentrations (Danio rerio embryo/larva [5]) | max % larvae (Danio rerio embryo/larva [6]) | max % larvae (Danio rerio embryo/larva [7]) | max % larvae (Danio rerio embryo/larva [8]) | max % larvae (Danio rerio embryo/larva [9]) | max % larvae (Danio rerio embryo/larva [10]) | BMC any abnormality (Danio rerio embryo/larva [11]) | max % larvae dead across tested concentrations (Danio rerio embryo/larva [12]) | max % larvae (Danio rerio embryo/larva [13]) | BMC mortality (Danio rerio embryo/larva [14]) | max % larvae unhatched across tested concentrations (Danio rerio embryo/larva [15]) | BMC edema (Danio rerio embryo/larva [16]; [19]) | BMC swim bladder non-inflation (Danio rerio embryo/larva [17]; [19]) | BMC edema (Danio rerio embryo/larva [16]; max tested concentration (log10 uM): 0.477121) | BMC edema (Danio rerio embryo/larva [16]; [20]) | BMC swim bladder non-inflation (Danio rerio embryo/larva [17]; [20]) | BMC craniofacial defects (Danio rerio embryo/larva [18]) |
| --- | --- | --- | --- | --- | --- | --- | --- | --- | --- | --- | --- | --- | --- | --- | --- | --- | --- | --- | --- | --- | --- |
| OCCC(F)(F)C(F)(F)C(F)(F)C(F)(F)C(F)(F)C(F)(F)F [2-(Perfluorohexyl)ethanol] (max tested concentration (log10 uM): 2) | 3.37 µM | 6.82% | 0% | 11.4% | 79.5% | 81.8% | 79.5% | 68.2% | 0% | 13.6% |  |  |  |  |  |  |  |  |  |  |  |
| C[N+](C)(C)CCCNS(=O)(=O)C(F)(F)C(F)(F)C(F)(F)C(F)(F)C(F)(F)C(F)(F)C(F)(F)C(F)(F)F |  |  |  |  |  |  |  |  |  |  | 22.3 µM | 100% | 100% | 19.8 µM | 0% |  |  |  |  |  |  |
| O=C(CC(=O)C(F)(F)C(F)(F)C(F)(F)F)c1cccs1 [(Perfluorobutyryl)-2-thenoylmethane] |  |  |  |  |  |  |  |  |  |  | 3.11 µM | 100% | 100% | 6.44 µM | 0% |  |  |  |  |  |  |
| CC(C)(C)C(=O)CC(=O)C(F)(F)C(F)(F)C(F)(F)F [(Heptafluorobutanoyl)pivaloylmethane] (max tested concentration (log10 uM): 2) | 25.6 µM | 0% | 0% | 25% | 66.7% | 100% | 66.7% | 83.3% | 20% | 0% |  |  |  |  |  |  |  |  |  |  |  |
| O=C(O)C(F)(F)OC(F)(F)C(F)(F)OC(F)(F)C(F)(F)C(F)(F)C(F)(F)F [Perfluoro-3,6-dioxadecanoic acid] |  |  |  |  |  |  |  |  |  |  |  | 66.7% | 91.7% | 75.3 µM | 0% |  |  |  |  |  |  |
| O=C(O)CCC(F)(F)C(F)(F)C(F)(F)C(F)(F)C(F)(F)C(F)(F)F [3-(Perfluorohexyl)propanoic acid] |  |  |  |  |  |  |  |  |  |  | 8.2 µM | 100% | 100% | 19.5 µM | 0% | 9.01 µM |  |  |  |  |  |
| C=CC(=O)OCC(F)(F)C(F)(F)C(F)(F)COC(=O)C=C [1H,1H,5H,5H-Perfluoro-1,5-pentanediol diacrylate] |  |  |  |  |  |  |  |  |  |  | 7.62 µM | 100% | 100% | 8.77 µM | 0% |  |  |  |  |  |  |
| C=CC(=O)OCC(F)(F)C(F)(F)C(F)(F)C(F)(F)COC(=O)C=C [1H,1H,6H,6H-Perfluorohexane-1,6-diol diacrylate] |  |  |  |  |  |  |  |  |  |  | 1.52 µM | 100% | 100% | 8.28 µM | 0% | 8.94 µM | 2.81 µM |  |  |  |  |
| O=C(O)C(F)(F)C(F)(F)C(F)(F)C(F)(F)C(F)(F)C(F)(F)C(F)(F)C(F)(F)C(F)(F)C(F)(F)F [Perfluoroundecanoic acid] |  |  |  |  |  |  |  |  |  |  | 2.94 µM | 100% | 100% | 14.5 µM | 0% |  |  | 2.74 µM |  |  |  |
| FC(F)(F)C(F)(F)C(F)(F)C(F)(F)C(F)(F)CCI [1-Iodo-1H,1H,2H,2H-perfluoroheptane] (max tested concentration (log10 uM): 2) | 31.4 µM | 4.17% | 0% | 10.7% | 42.9% | 35.7% | 35.7% | 14.3% | 0% | 7.14% |  |  |  |  |  |  |  |  |  |  |  |
| FC(F)(I)C(F)(F)C(F)(F)C(F)(F)C(F)(F)C(F)(F)I [1,6-Diiodoperfluorohexane] (max tested concentration (log10 uM): 2) | 4.24 ± 2.6 µM | 33.3 ± 18% | 10 ± 14% | 54.6 ± 0.59% | 95 ± 7.1% | 100% | 67.5 ± 3.5% | 90% | 56.7 ± 33% | 7.5 ± 11% |  |  |  |  |  |  |  |  |  |  |  |
| OCCCCC(F)(F)C(F)(F)C(F)(F)C(F)(F)F [4:4 Fluorotelomer alcohol] |  |  |  |  |  |  |  |  |  |  | 25.5 µM | 41.7% | 97.9% | 86.5 µM | 0% |  |  |  | 25.8 µM | 27.1 µM | 34.7 µM |
| O=S(=O)(O)C(F)(F)C(F)(F)C(F)(F)C(F)(F)C(F)(F)C(F)(F)C(F)(F)C(F)(F)F [Perfluorooctanesulfonic acid] (max tested concentration (log10 uM): 1) | 7.82 µM | 6.25% | 0% | 25% | 75% | 62.5% | 43.8% | 50% | 0% | 18.8% |  |  |  |  |  |  |  |  |  |  |  |
| OC(C(F)(F)F)(C(F)(F)F)C(O)(C(F)(F)F)C(F)(F)F [Perfluoropinacol] (max tested concentration (log10 uM): 0.477121) | 2.52 µM | 0% | 0% | 0% | 50% | 100% | 50% | 50% | 0% | 0% |  |  |  |  |  |  |  |  |  |  |  |
| OCC(F)(F)C(F)(F)C(F)(F)C(F)(F)C(F)(F)C(F)(F)CO [1H,1H,8H,8H-Perfluorooctane-1,8-diol] (max tested concentration (log10 uM): 2) | 50.1 µM | 8.33% | 0% | 8.33% | 52.1% | 87.5% | 50% | 25% | 0% | 2.08% |  |  |  |  |  |  |  |  |  |  |  |
